Assay results: ChEMBL document CHEMBL4819064, “Discovery of new pyrimidopyrrolizine/indolizine-based derivatives as P-glycoprotein inhibitors: Design, synthesis, cytotoxicity, and MDR reversal activities” (Eur J Med Chem, 2021)

Experiments:
[1] = Inhibition of P-gp in mouse EMT6/AR1.0 cells assessed reduction in tritiated daunomycin efflux incubated for 2 hrs by radioactivity based assay; assay type: cell-based; conditions: EMT6/AR1, 2 h
[2] = Selectivity index, ratio of IC50 for human MRC5 cells to IC50 for human HT29 cells; assay type: toxicity; conditions: MRC5 cells versus HT29 cells, read-out: Ratio IC50
[3] = test system: MRC5; assay: Cytotoxicity against human MRC5 cells assessed as reduction in cell viability incubated for 72 hrs by MTT assay; conditions: MRC5, 72 h
[4] = test system: A2780; assay: Cytotoxicity against human A2780 cells assessed as reduction in cell viability incubated for 72 hrs by MTT assay; conditions: A2780, 72 h
[5] = test system: HT-29; assay: Cytotoxicity against human HT29 cells assessed as reduction in cell viability incubated for 72 hrs by MTT assay; conditions: HT-29, 72 h
[6] = Selectivity index, ratio of IC50 for human MRC5 cells to IC50 for human A2780 cells; assay type: toxicity; conditions: MRC5 cells versus A2780 cells, read-out: Ratio IC50
[7] = Selectivity index, ratio of IC50 for human MRC5 cells to IC50 for human MCF7 cells; assay type: toxicity; conditions: MRC5 cells versus MCF7 cells, read-out: Ratio IC50
[8] = test system: MCF7; assay: Cytotoxicity against human MCF7 cells assessed as reduction in cell viability incubated for 72 hrs by MTT assay; assay type: functional, cell-based; conditions: MCF7, 72 h
[9] = Reversal of multidrug resistant activity in human MCF7/ADR cells assessed as reversal fold after 72 hrs by MTT assay; assay type: functional, NCI/ADR-RES
[10] = test system: NCI/ADR-RES; assay: Synergistic cytotoxicity against human MCF7/ADR cells assessed as combination index at 0.25 uM after 72 hrs in presence of 1 uM doxorubicin by MTT assay; assay type: functional
[11] = test system: NCI/ADR-RES; assay: Cytotoxicity against human MCF7/ADR cells assessed as reduction in cell viability incubated for 72 hrs in presence of doxorubicin by MTT assay; assay type: functional, cell-based
[12] = test system: NCI/ADR-RES; assay: Synergistic cytotoxicity against human MCF7/ADR cells assessed as combination index at 0.25 uM after 72 hrs in presence of 0.5 uM doxorubicin by MTT assay; assay type: functional
[13] = test system: NCI/ADR-RES; assay: Synergistic cytotoxicity against human MCF7/ADR cells assessed as combination index at 0.25 uM after 72 hrs in presence of 0.25 uM doxorubicin by MTT assay; assay type: functional
[14] = test system: NCI/ADR-RES; assay: Cytotoxicity against human MCF7/ADR cells assessed as reduction in cell viability incubated for 72 hrs by MTT assay
[15] = test system: NCI/ADR-RES; assay: Synergistic cytotoxicity against human MCF7/ADR cells assessed as combination index at 0.5 uM after 72 hrs in presence of 0.25 uM doxorubicin by MTT assay; assay type: functional
[16] = test system: NCI/ADR-RES; assay: Synergistic cytotoxicity against human MCF7/ADR cells assessed as combination index at 0.5 uM after 72 hrs in presence of 1 uM doxorubicin by MTT assay; assay type: functional
[17] = test system: NCI/ADR-RES; assay: Synergistic cytotoxicity against human MCF7/ADR cells assessed as combination index at 0.5 uM after 72 hrs in presence of 0.5 uM doxorubicin by MTT assay; assay type: functional
[18] = test system: NCI/ADR-RES; assay: Synergistic cytotoxicity against human MCF7/ADR cells assessed as combination index at 1 uM after 72 hrs in presence of 1 uM doxorubicin by MTT assay; assay type: functional
[19] = test system: NCI/ADR-RES; assay: Synergistic cytotoxicity against human MCF7/ADR cells assessed as combination index at 1 uM after 72 hrs in presence of 0.25 uM doxorubicin by MTT assay; assay type: functional
[20] = test system: NCI/ADR-RES; assay: Synergistic cytotoxicity against human MCF7/ADR cells assessed as combination index at 1 uM after 72 hrs in presence of 0.5 uM doxorubicin by MTT assay; assay type: functional
[21] = target: T1, P-gp (ABCB1) (Homo sapiens, UniProt P08183); assay: Inhibition of P-gp activity in human MCF7/ADR cells at 500 nM after 72 hrs by RT-PCR analysis relative to control; assay type: cell-based, NCI/ADR-RES; conditions: MCF7/ADR cells
[22] = target: T1, P-gp (ABCB1); assay: Inhibition of P-gp activity in human MCF7/ADR cells at 250 nM after 72 hrs by RT-PCR analysis relative to control; assay type: cell-based, NCI/ADR-RES; conditions: MCF7/ADR cells
[23] = target: T1, P-gp (ABCB1); assay: Inhibition of P-gp activity in human MCF7/ADR cells at 1000 nM after 72 hrs by RT-PCR analysis relative to control; assay type: cell-based, NCI/ADR-RES; conditions: MCF7/ADR cells
[24] = target: T1, P-gp (ABCB1); assay: Inhibition of P-gp activity in human MCF7/ADR cells at 125 nM after 72 hrs by RT-PCR analysis relative to control; assay type: cell-based, NCI/ADR-RES
[25] = target: ATP-dependent translocase ABCB1 (Homo sapiens, UniProt P08183); assay: Inhibition of P-gp activity in human MCF7/ADR cells after 72 hrs by RT-PCR analysis; assay type: cell-based; conditions: nci/adr-res, at 125 to 1000 nM, dose 125-1000 nM
ATP-dependent translocase ABCB1, sequence (P08183 whole entry): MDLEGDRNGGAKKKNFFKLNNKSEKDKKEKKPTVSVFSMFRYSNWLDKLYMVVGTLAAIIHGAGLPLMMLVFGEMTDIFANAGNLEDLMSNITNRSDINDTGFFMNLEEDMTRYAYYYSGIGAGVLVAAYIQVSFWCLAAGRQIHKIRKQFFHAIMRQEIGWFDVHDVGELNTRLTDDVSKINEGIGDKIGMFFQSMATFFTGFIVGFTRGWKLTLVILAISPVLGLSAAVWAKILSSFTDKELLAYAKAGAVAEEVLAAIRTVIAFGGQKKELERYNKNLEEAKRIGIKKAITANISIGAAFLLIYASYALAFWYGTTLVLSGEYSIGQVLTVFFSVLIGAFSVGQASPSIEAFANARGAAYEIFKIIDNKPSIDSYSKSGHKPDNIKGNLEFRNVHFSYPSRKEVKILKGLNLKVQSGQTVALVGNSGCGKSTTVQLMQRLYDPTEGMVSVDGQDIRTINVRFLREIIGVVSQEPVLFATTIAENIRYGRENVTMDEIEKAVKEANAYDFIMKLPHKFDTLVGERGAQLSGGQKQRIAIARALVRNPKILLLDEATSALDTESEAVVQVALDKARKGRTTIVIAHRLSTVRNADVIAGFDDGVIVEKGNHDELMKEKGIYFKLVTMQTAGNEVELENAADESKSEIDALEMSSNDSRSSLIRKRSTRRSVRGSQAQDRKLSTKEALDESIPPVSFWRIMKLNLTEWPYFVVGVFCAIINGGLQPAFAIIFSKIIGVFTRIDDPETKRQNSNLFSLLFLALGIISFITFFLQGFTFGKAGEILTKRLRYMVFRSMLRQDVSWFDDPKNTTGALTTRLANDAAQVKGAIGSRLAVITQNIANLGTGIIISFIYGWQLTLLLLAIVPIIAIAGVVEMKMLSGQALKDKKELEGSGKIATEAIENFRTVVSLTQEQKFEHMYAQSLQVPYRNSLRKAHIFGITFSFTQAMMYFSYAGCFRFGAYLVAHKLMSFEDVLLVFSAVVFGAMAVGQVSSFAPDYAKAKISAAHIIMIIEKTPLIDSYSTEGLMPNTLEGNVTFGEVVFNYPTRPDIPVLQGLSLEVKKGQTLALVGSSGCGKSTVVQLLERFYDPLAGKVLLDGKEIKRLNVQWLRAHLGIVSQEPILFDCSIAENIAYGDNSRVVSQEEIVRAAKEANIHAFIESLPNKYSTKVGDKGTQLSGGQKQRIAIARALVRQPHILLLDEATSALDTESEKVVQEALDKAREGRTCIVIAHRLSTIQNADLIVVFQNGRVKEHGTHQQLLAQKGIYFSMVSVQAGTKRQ

T1 sequence (P08183 whole entry): as above

SMILES | selectivity ratio [2] | IC50 [3] | IC50 [4] | IC50 [5] | selectivity ratio [6] | selectivity ratio [7] | IC50 [8] | fold change (FC) [9] | CI [10] | IC50 [11] | CI [12] | CI [13] | IC50 [14] | CI [15] | CI [16] | CI [17] | CI [18] | CI [19] | CI [20] | other results
N#Cc1c2n(c3c(SCc4ccc(Cl)cc4)ncnc13)CCCCC2 | – | – | – | – | – | – | – | – | – | – | – | – | – | – | – | – | – | – | – | IC50 [1]: > 50000 nM
N#Cc1c2c(n3c1CCC3)C(=O)N(c1ccc(F)cc1)CC(=O)N2 | 0.15 | 1460 nM | 970 nM | 9710 nM | 1.51 | 7.68 | 190 nM | – | – | – | – | – | – | – | – | – | – | – | – | –
N#Cc1c2n(c3c(=O)n(-c4ccc(Cl)cc4)cnc13)CCCC2 | 0.71 | 300 nM | 70 nM | 420 nM | 4.29 | 1.2 | 250 nM | 2.88 | 0.19 | 6330 nM | >100 | >100 | 37300 nM | >100 | 0.9 | >100 | 0.21 | >100 | >100 | –
COc1ccc(-n2c(=O)[nH]c3c(C#N)c4n(c3c2=O)CCC4)cc1 | 33 | 13800 nM | 15600 nM | 420 nM | 0.88 | 0.71 | 19600 nM | – | – | – | – | – | – | – | – | – | – | – | – | –
N#Cc1c2n(c3c(=O)n(-c4ccc(Br)cc4)cnc13)CCCC2 | 1.12 | 15800 nM | 20 nM | 14200 nM | 792 | 58.6 | 270 nM | 5.93 | 0.2 | 3070 nM | >100 | >100 | 20200 nM | >100 | 0.91 | 1.141 | 0.1 | >100 | 1.53 | inhibition at 72 h, 0.5 µM [21]: 87%; inhibition at 72 h, 0.25 µM [22]: 63%; inhibition at 72 h, 1 µM [23]: 90%; inhibition at 72 h, 0.125 µM [24]: 5%; inhibition (INH) [25]: Dose-Dependent Effect
O=C(Nc1ccc(F)cc1)c1c2nc[nH]c(=O)c2c2n1CCC2 | 0.17 | 170 nM | 580 nM | 1020 nM | 0.29 | 0.23 | 740 nM | – | – | – | – | – | – | – | – | – | – | – | – | –
Cc1nc2c(C#N)c3n(c2c(=O)n1-c1ccc(Cl)cc1)CCCC3 | 0.15 | 1540 nM | 630 nM | 10500 nM | 2.44 | 0.14 | 10800 nM | – | – | – | – | – | – | – | – | – | – | – | – | –
Cc1nc2c(C#N)c3n(c2c(=O)n1-c1ccc(F)cc1)CCC3 | 3.56 | 2780 nM | 150 nM | 780 nM | 18.5 | 16.4 | 170 nM | 2.98 | 0.89 | 6120 nM | >100 | >100 | 46900 nM | >100 | 0.2 | >100 | 0.1 | >100 | 9.602 | –
N#Cc1c2n(c3c(=O)n(-c4ccc(F)cc4)cnc13)CCC2 | 23.4 | 11200 nM | 720 nM | 480 nM | 15.6 | 17.3 | 650 nM | 8.24 | 0.6 | 2210 nM | 14.6 | >100 | 10300 nM | >100 | 0.12 | 1.089 | 0.1 | >100 | 2.647 | inhibition at 72 h, 0.5 µM [21]: 91%; inhibition at 72 h, 0.25 µM [22]: 65%; inhibition at 72 h, 1 µM [23]: 92%; inhibition at 72 h, 0.125 µM [24]: 9%; inhibition (INH) [25]: Dose-Dependent Effect
COc1ccc(N2CC(=O)Nc3c(C#N)c4n(c3C2=O)CCC4)cc1 | 47.9 | 9570 nM | 6280 nM | 200 nM | 1.52 | 3.38 | 2830 nM | – | – | – | – | – | – | – | – | – | – | – | – | –
COc1ccc(NC(=O)c2c3nc[nH]c(=O)c3c3n2CCC3)cc1 | 10.9 | 1530 nM | 15600 nM | 140 nM | 0.1 | 1.07 | 1430 nM | – | – | – | – | – | – | – | – | – | – | – | – | –
Cc1nc2c(C#N)c3n(c2c(=O)n1-c1ccccc1)CCCC3 | 8.61 | 7580 nM | 50 nM | 880 nM | 152 | 4.23 | 1790 nM | – | – | – | – | – | – | – | – | – | – | – | – | –
COc1ccc(-n2c(C)nc3c(C#N)c4n(c3c2=O)CCC4)cc1 | 108 | 17300 nM | 70 nM | 160 nM | 247 | 216 | 80 nM | 2.4 | 0.19 | 7580 nM | 11.363 | >100 | 30500 nM | 37.214 | 0.2 | 2.952 | 0.3 | >100 | 5.646 | –
N#Cc1c2n(c3c(=O)n(-c4ccc(F)cc4)c(=O)[nH]c13)CCC2 | 0.05 | 240 nM | 730 nM | 4380 nM | 0.33 | 0.27 | 880 nM | – | – | – | – | – | – | – | – | – | – | – | – | –
Cc1nc2c(C#N)c3n(c2c(=O)n1-c1ccc(Br)cc1)CCCC3 | 0.35 | 3710 nM | 160 nM | 10800 nM | 23.2 | 2.25 | 1650 nM | – | – | – | – | – | – | – | – | – | – | – | – | –
COc1ccc(-n2cnc3c(C#N)c4n(c3c2=O)CCC4)cc1 | 1.88 | 20600 nM | 1360 nM | 11000 nM | 15.1 | 7.88 | 2610 nM | – | – | – | – | – | – | – | – | – | – | – | – | –
